Laboratory results: EPA's CvTdb concentration-time database

What was measured:
rat [1] = test: concentration in blood after dosing; details: dosed: hexane, 60000 ppm, dermal, duration: 4 hr, male, F344
rat [2] = test: concentration in blood after dosing; details: dosed: hexane, 60000 ppm, dermal, duration: 4 hr, male, F344; remark: listed apart in the source
rat [3] = test: concentration in blood after dosing; details: dosed: hexane, 60000 ppm, dermal, duration: 4 hr, male, F344; remark: listed apart in the source
rat [4] = test: concentration in blood after dosing; details: dosed: hexane, 60000 ppm, dermal, duration: 4 hr, male, F344; remark: listed apart in the source
rat [5] = test: concentration in blood after dosing; details: dosed: hexane, 60000 ppm, dermal, duration: 4 hr, male, F344; remark: listed apart in the source
Rat [6] = test: concentration in plasma after dosing; details: 0.5 h; dosed: Dibromoacetic acid; 25 mg/kg; oral; Male; Harlan Sprague Dawley
Rat [7] = test: concentration in plasma after dosing; details: dosed: Dibromoacetic acid, 25 mg/kg, oral, Male, Harlan Sprague Dawley
Rat [8] = test: concentration in plasma after dosing; details: dosed: Dibromoacetic acid, 25 mg/kg, oral, Male, Harlan Sprague Dawley; remark: listed apart in the source
Rat [9] = test: concentration in plasma after dosing; details: dosed: Dibromoacetic acid, 25 mg/kg, oral, Male, Harlan Sprague Dawley; remark: listed apart in the source
Rat [10] = test: concentration in plasma after dosing; details: dosed: Dibromoacetic acid, 25 mg/kg, oral, Male, Harlan Sprague Dawley; remark: listed apart in the source
Rat [11] = test: concentration in plasma after dosing; details: 40 min; dosed: Dibromoacetic acid; 10 mg/kg; iv; Male; F344
Rat [12] = test: concentration in plasma after dosing; details: 5 min; dosed: Dibromoacetic acid; 50 mg/kg; oral; Female; Harlan Sprague Dawley
Rat [13] = test: concentration in plasma after dosing; details: dosed: Dibromoacetic acid, 25 mg/kg, oral, Male, Harlan Sprague Dawley; remark: listed apart in the source
Rat [14] = test: concentration in plasma after dosing; details: 20 min; dosed: Dibromoacetic acid; 10 mg/kg; iv; Male; F344
Rat [15] = test: concentration in plasma after dosing; details: dosed: Dibromoacetic acid, 25 mg/kg, oral, Male, Harlan Sprague Dawley; remark: listed apart in the source
Rat [16] = test: concentration in plasma after dosing; details: 10 min; dosed: Dibromoacetic acid; 10 mg/kg; iv; Male; F344
Rat [17] = test: concentration in plasma after dosing; details: dosed: Dibromoacetic acid, 25 mg/kg, oral, Male, Harlan Sprague Dawley; remark: listed apart in the source
Rat [18] = test: concentration in plasma after dosing; details: 5 min; dosed: Dibromoacetic acid; 25 mg/kg; oral; Male; Harlan Sprague Dawley
Rat [19] = test: concentration in plasma after dosing; details: dosed: Dibromoacetic acid, 110 mg/kg, iv, Female, Harlan Sprague-Dawley
Rat [20] = test: concentration in plasma after dosing; details: 5 min; dosed: Dibromoacetic acid; 25 mg/kg; oral; Male; Harlan Sprague Dawley; remark: listed apart in the source
Rat [21] = test: concentration in plasma after dosing; details: dosed: Dibromoacetic acid
Rat [22] = test: concentration in plasma after dosing; details: dosed: Dibromoacetic acid, 25 mg/kg, oral, Male, Harlan Sprague Dawley; remark: listed apart in the source
Rat [23] = test: concentration in plasma after dosing; details: 5 min; dosed: Dibromoacetic acid; 50 mg/kg; oral; Female; Harlan Sprague Dawley; remark: listed apart in the source
Rat [24] = test: concentration in plasma after dosing; details: dosed: Dibromoacetic acid, 25 mg/kg, oral, Male, Harlan Sprague Dawley; remark: listed apart in the source
Rat [25] = test: concentration in plasma after dosing; details: 5 min; dosed: Dibromoacetic acid; 25 mg/kg; oral; Male; Harlan Sprague Dawley; remark: listed apart in the source
Rat [26] = test: concentration in plasma after dosing; details: 0.5 h; dosed: Dibromoacetic acid; 25 mg/kg; oral; Male; Harlan Sprague Dawley; remark: listed apart in the source
Rat [27] = test: concentration in plasma after dosing; details: dosed: Dibromoacetic acid, 25 mg/kg, oral, Male, Harlan Sprague Dawley; remark: listed apart in the source
Rat [28] = test: concentration in plasma after dosing; details: dosed: Dibromoacetic acid, 110 mg/kg, iv, Female, Harlan Sprague-Dawley; remark: listed apart in the source
Rat [29] = test: concentration in plasma after dosing; details: dosed: Dibromoacetic acid, 25 mg/kg, oral, Male, Harlan Sprague Dawley; remark: listed apart in the source
Rat [30] = test: concentration in plasma after dosing; details: 0.5 h; dosed: Dibromoacetic acid; 25 mg/kg; oral; Male; Harlan Sprague Dawley; remark: listed apart in the source
Rat [31] = test: concentration in plasma after dosing; details: dosed: Dibromoacetic acid, 25 mg/kg, oral, Female, Harlan Sprague Dawley
Rat [32] = test: concentration in plasma after dosing; details: dosed: Dibromoacetic acid, 25 mg/kg, oral, Male, Harlan Sprague Dawley; remark: listed apart in the source
Rat [33] = test: concentration in plasma after dosing; details: dosed: Dibromoacetic acid, 25 mg/kg, oral, Male, Harlan Sprague Dawley; remark: listed apart in the source
Rat [34] = test: concentration in plasma after dosing; details: 0.5 h; dosed: Dibromoacetic acid; 25 mg/kg; oral; Male; Harlan Sprague Dawley; remark: listed apart in the source
Rat [35] = test: concentration in plasma after dosing; details: dosed: Dibromoacetic acid, 10 mg/kg, iv, Male, F344
Rat [36] = test: concentration in plasma after dosing; details: dosed: Dibromoacetic acid, 10 mg/kg, iv, Male, F344; remark: listed apart in the source
Rat [37] = test: concentration in plasma after dosing; details: 40 min; dosed: Dibromoacetic acid; 10 mg/kg; iv; Male; F344; remark: listed apart in the source
Rat [38] = test: concentration in plasma after dosing; details: dosed: Dibromoacetic acid, 10 mg/kg, iv, Male, F344; remark: listed apart in the source
Rat [39] = test: concentration in plasma after dosing; details: dosed: Dibromoacetic acid, 25 mg/kg, oral, Male, Harlan Sprague Dawley; remark: listed apart in the source
Rat [40] = test: concentration in plasma after dosing; details: dosed: Dibromoacetic acid, 10 mg/kg, iv, Male, F344; remark: listed apart in the source
Rat [41] = test: concentration in plasma after dosing; details: dosed: Dibromoacetic acid, 110 mg/kg, iv, Female, Harlan Sprague-Dawley; remark: listed apart in the source
Rat [42] = test: concentration in plasma after dosing; details: dosed: Dibromoacetic acid, 25 mg/kg, oral, Male, Harlan Sprague Dawley; remark: listed apart in the source
Rat [43] = test: concentration in plasma after dosing; details: 5 min; dosed: Dibromoacetic acid; 25 mg/kg; oral; Male; Harlan Sprague Dawley; remark: listed apart in the source
Rat [44] = test: concentration in plasma after dosing; details: dosed: Dibromoacetic acid, 25 mg/kg, oral, Male, Harlan Sprague Dawley; remark: listed apart in the source
Rat [45] = test: concentration in plasma after dosing; details: dosed: Dibromoacetic acid, 50 mg/kg, oral, Female, Harlan Sprague Dawley
Rat [46] = test: concentration in plasma after dosing; details: 10 min; dosed: Dibromoacetic acid; 10 mg/kg; iv; Male; F344; remark: listed apart in the source
Rat [47] = test: concentration in plasma after dosing; details: dosed: Dibromoacetic acid, 25 mg/kg, oral, Male, Harlan Sprague Dawley; remark: listed apart in the source
Rat [48] = test: concentration in plasma after dosing; details: 5 min; dosed: Dibromoacetic acid; 25 mg/kg; oral; Male; Harlan Sprague Dawley; remark: listed apart in the source
Rat [49] = test: concentration in plasma after dosing; details: 20 min; dosed: Dibromoacetic acid; 10 mg/kg; iv; Male; F344; remark: listed apart in the source
Rat [50] = test: concentration in plasma after dosing; details: dosed: Dibromoacetic acid, 25 mg/kg, oral, Female, Harlan Sprague Dawley; remark: listed apart in the source

CCCCCC [hexane]
concentration in blood [ng/mL]
Details | rat [1] | rat [2] | rat [3] | rat [4] | rat [5]
0.5 h | 606 | – | 1240 | – | 1500
1 h | 903 | 708 | 804 | 406 | 31.2
2 h | 500 | 112 | 1100 | 812 | –
3 h | – | 414 | 1300 | 796 | 304
4 h | – | – | 999 | 200 | 804

O=C(O)C(Br)Br [Dibromoacetic acid]
Details | concentration in plasma [ng/mL]
Rat [6] | 12600
Rat [11] | 498
Rat [12] | 4030
Rat [14] | 1890
Rat [16] | 6230
Rat [18] | 3390
Rat [20] | 2210
Rat [23] | 2800
Rat [25] | 1630
Rat [26] | 8900
Rat [30] | 13500
Rat [34] | 7630
Rat [37] | 607
Rat [43] | 238
Rat [46] | 7190
Rat [48] | 294
Rat [49] | 2540

Details | concentration in plasma [ng/mL]
Rat [7], 0.75 h | 10200
Rat [7], 4 h | 1540
Rat [8], 1.5 h | 1550
Rat [8], 20 min | 13500
Rat [9], 3 h | 476
Rat [9], 10 min | 6890
Rat [10], 0.5 h | 15000
Rat [10], 6 h | 466
Rat [13], 3 h | 1620
Rat [13], 10 min | 1880
Rat [15], 3 h | 1720
Rat [15], 10 min | 853
Rat [17], 1.5 h | 1560
Rat [17], 20 min | 24200
Rat [19], 1.5 h | 20900
Rat [19], 3 h | 472
Rat [22], 3 h | 129
Rat [22], 10 min | 12100
Rat [24], 0.75 h | 8790
Rat [24], 4 h | 592
Rat [27], 1 h | 8770
Rat [27], 2 h | 1770
Rat [28], 2 h | 4660
Rat [28], 3 h | 459
Rat [29], 1.5 h | 2030
Rat [29], 20 min | 20900
Rat [31], 1 h | 8860
Rat [31], 2 h | 1240
Rat [32], 1.5 h | 3340
Rat [32], 20 min | 10700
Rat [33], 0.75 h | 10300
Rat [33], 4 h | 772
Rat [35], 1 h | 208
Rat [35], 2 min | 28100
Rat [36], 1.25 h | 101
Rat [36], 5 min | 14500
Rat [38], 1 h | 186
Rat [38], 2 min | 28800
Rat [39], 1.5 h | 1460
Rat [39], 20 min | 13200
Rat [40], 1.25 h | 301
Rat [40], 5 min | 12000
Rat [41], 1.5 h | 17600
Rat [41], 2 h | 5370
Rat [42], 3 h | 646
Rat [42], 10 min | 5770
Rat [44], 0.75 h | 6410
Rat [44], 4 h | 772
Rat [45], 3 h | 2050
Rat [45], 10 min | 9980
Rat [47], 1 h | 8050
Rat [47], 2 h | 1280
Rat [50], 1 h | 8120
Rat [50], 2 h | 887

concentration in plasma [ng/mL], Rat [21]
Details | Female | Male
0.5 h, 25 mg/kg, oral, Harlan Sprague Dawley | – | 10800
0.75 h, 25 mg/kg, oral, Harlan Sprague Dawley | 8910 | 11500
1 h, 10 mg/kg, iv, F344 | – | 262
1 h, 25 mg/kg, oral, Harlan Sprague Dawley | 6860 | 8310
1.25 h, 10 mg/kg, iv, F344 | – | 97.1
1.5 h, 10 mg/kg, iv, F344 | – | 175
1.5 h, 25 mg/kg, oral, Harlan Sprague Dawley | – | 2000
1.5 h, 110 mg/kg, iv, Harlan Sprague-Dawley | 21600 | –
2 h, 25 mg/kg, oral, Harlan Sprague Dawley | 1460 | 1850
2 h, 110 mg/kg, iv, Harlan Sprague-Dawley | 4710 | –
2 min, 10 mg/kg, iv, F344 | – | 31000
3 h, 25 mg/kg, oral, Harlan Sprague Dawley | – | 751
3 h, 50 mg/kg, oral, Harlan Sprague Dawley | 1930 | –
3 h, 110 mg/kg, iv, Harlan Sprague-Dawley | 405 | –
4 h, 25 mg/kg, oral, Harlan Sprague Dawley | 966 | 106
5 min, 10 mg/kg, iv, F344 | – | 11500
5 min, 25 mg/kg, oral, Harlan Sprague Dawley | – | 411
5 min, 50 mg/kg, oral, Harlan Sprague Dawley | 8050 | –
6 h, 25 mg/kg, oral, Harlan Sprague Dawley | – | 109
10 min, 10 mg/kg, iv, F344 | – | 5230
10 min, 25 mg/kg, oral, Harlan Sprague Dawley | – | 4010
10 min, 50 mg/kg, oral, Harlan Sprague Dawley | 13500 | –
20 min, 10 mg/kg, iv, F344 | – | 2810
20 min, 25 mg/kg, oral, Harlan Sprague Dawley | – | 17200
40 min, 10 mg/kg, iv, F344 | – | 544
